Broadly, the IC50 is the point on the concentration scale where inhibition reaches its midpoint.

“Also recorded” adds a separate entry of the source. Ends that are not written are not given here. A value given as a limit tells only on which side of the number the result lay.

Here are results for 12 molecules from patent US6548284B1, “Membrane-bound metalloprotease and soluble secreted form thereof” (JCR Pharmaceuticals Co., Ltd., priority 2000, dated 2003).

Series [1] concerns the target T1, soluble form of SEP (Mus musculus, UniProt Q9JLI3).
T1 construct: partially purified the soluble form of SEP from the conditioned medium of CHO/SEP cells; made in house; host or cells: CHO-K1 cells, transient transfection; conditioned medium partially purified on a wheat germ lectin column
T1 sequence (Q9JLI3 63-765 limits assumed): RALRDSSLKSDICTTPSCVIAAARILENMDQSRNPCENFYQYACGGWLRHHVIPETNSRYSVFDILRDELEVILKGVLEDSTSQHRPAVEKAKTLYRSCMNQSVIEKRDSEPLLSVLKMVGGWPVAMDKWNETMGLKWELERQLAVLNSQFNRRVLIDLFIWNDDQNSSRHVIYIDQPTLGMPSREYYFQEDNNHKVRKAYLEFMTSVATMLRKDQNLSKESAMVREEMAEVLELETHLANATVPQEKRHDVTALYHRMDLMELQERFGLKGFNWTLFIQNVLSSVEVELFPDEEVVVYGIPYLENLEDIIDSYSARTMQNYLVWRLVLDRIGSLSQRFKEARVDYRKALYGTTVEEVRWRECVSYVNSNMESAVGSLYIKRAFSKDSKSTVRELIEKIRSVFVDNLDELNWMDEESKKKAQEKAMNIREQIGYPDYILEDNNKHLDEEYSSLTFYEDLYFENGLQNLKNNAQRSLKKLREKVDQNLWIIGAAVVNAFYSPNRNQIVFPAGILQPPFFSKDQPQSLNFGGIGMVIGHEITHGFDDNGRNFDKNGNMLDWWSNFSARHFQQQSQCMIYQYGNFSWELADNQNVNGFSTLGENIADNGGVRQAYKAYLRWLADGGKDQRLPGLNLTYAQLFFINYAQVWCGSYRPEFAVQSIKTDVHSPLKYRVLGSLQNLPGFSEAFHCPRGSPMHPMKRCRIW
The experiment in a line: Inhibition of ET-1 degrading activity of recombinant soluble SEP. In kind it is biochemical. The note with it: for SEP activity: Inhibitor 100 μM, SEP partially purified from conditioned medium of CHO/SEP cells, no inhibitor = 100, unit assumed; for inhibition of SEP activity (in words) / IC50: soluble form of SEP; for inhibition of SEP activity (in words): in vitro; for IC50: ET-1 degrading activity, dose-dependent, read-out: apparent IC50, inhibition of SEP activity. How it is done:
(§1) Double transfection of prepro-ET-1and ECE-1a, SEP, or SEP^Δ was performed using LipofectAMINE (Life Technologies, Inc.). Twelve hours after transfection, cells were refed with fresh medium. […] For in vitro enzymological charactenization, an SEP expression construct was transiently transfected into CHO-K1 cells. The medium was conditioned for 48 h in CHO-SFM II (Life Technologies, Inc.) and was subjected to a wheat germ lectin column (1×1 ml HiTrap wheat germ lectin; Amersham Pharmacia Biotech) equilibrated with 20 mM Tris-Cl (pH 7.4) and 0.5M NaCl. The column was washed and eluted with the same buffer containing 0.5M N-acetylglucosamine. The active fraction was subsequently subjected to a Centriprep concentrator (Amicon).
(§2) Reaction mixtures for enzyme assay (100 μl) contained 0.1 M MES-NaOH(pH 7.4), 0.5 μM peptide, and an enzyme fraction. For some experiments, the reactions were preincubated at 37° C. with various protease inhibitors for 15 min prior to the addition of the peptide. The reactions were incubated at 37° C. for 1-12 h in siliconized 0.5-ml microcentrifuge tubes. The enzyme reaction was terminated by adding 1 μl of 10 mM EDTA. The mixture was then injected into a C18 reverse-phase high pressure liquid chromatography (HPLC) column (μRPC C2/C18, ST4.6/100; Amersham Pharmacia Biotech) that was equilibrated with 10% (v/v) acetonitrile and 0.1% (v/v) trifluoroacetic acid. The column was eluted at a flow rate of 1 ml/min with a 10-80% linear gradient of acetonitrile and 0.1% trifluoroacetic acid over 43 min, followed by a 100% acetonitrile for an additional 3 min. Peptides were detected by absorbance at 220 nm.
The present inventors next assessed the enzymological properties of cloned SEP by using its ET-1 degrading activity.

The target of series [2] is T1, soluble form of SEP. The experiment in a line: SEP-catalyzed hydrolysis of bioactive peptides monitored by HPLC. It counts as biochemical. To be noted: by recombinant soluble SEP, substrate peak area vs control. How it is done: as §1, with “CHO-K1 cells were cultured [Emoto, N. et al., J. Biol. Chem., 274:1509-1518(1999)]. Double” for “Double”
as §2
Previously, the present inventors have shown that ECE-1 cleaves the Trp^21-Val^22 bond of big ET-1 (1-38) to produce mature ET-1(1-21) and the C-terminal half of big ET-1(22-38) without further cleaving other parts of big ET-1 or ET-1 [Xu, D. et al., Cell, 78:473-485(1994)]. To examine the cleavage site(s) of big ET-1 and mature ET-1 by recombinant SEP in an […] assay, the present inventors partially purified the soluble form of SEP from the conditioned medium of CHO/SEP cells. The present inventors then incubated relatively large amounts of big ET-1 (10 μM) and ET-1 (1.5 μM) with partially purified SEP for a prolonged period of time (12 h) while directly monitoring the cleavage by reverse-phase HPLC. Product peaks were collected, and the peptides were identified by mass spectrometry. Big ET-1 (1-38) was hydrolyzed to a significant degree (42%) by the soluble form of SEP, and HPLC resolved at least four distinct product peaks (FIG. 7B). Two peptides products (FIG. 7C, peaks 1 and 4) were co-eluted with the standards of big ET-1 (22-38) and mature ET-1 (1-21), respectively. Analysis using mass spectrometry confirmed that they were big ET-1 (22-38) and mature ET-1(1-2 1), with an m/z value for (M+H)^+ of 1810 and 2493, respectively. These finding indicate that the soluble form of SEP can produce ET-1 by cleaving at the specific Trp^21-Val^22 site of big ET-1. On the other hand, it appears that ET-1 is further digested by the soluble form of SEP. […] These two major peaks (FIG. 7D, peaks 1 and 2) from mature ET-1 were co-eluted with the peaks (FIG. […], peaks 2 and 3, respectively) produced from big ET-1 hydrolysis. Using molecular masses, one peptide product (FIG. 7; C, peak 3, and D, peak 2) was identified as ET-1 (1-16). Another peptide product (FIG. 7; C, peak 2, and D, peak 1) appeared to be the two-chain ET-1 (1-16), which is held together by two disulfide bonds between Cys^1 and Cys^15 and between Cys^3 and Cys^11, presumably produced by cleavage at one site between Ser^4 and Glu^10 of ET-1 (1-16).
Finally, the present inventors examined the SEP-catalyzed hydrolysis of other bioactive peptides that have been characterized as substrates of ECE-1 and/or NEP. […]

The next series concerns ECE-1 and ECE-2. The note with it: ECE-1 vs ECE-2; cited from earlier work.
Series [3] addresses T2, synthetic human ET-1 (1-21), P05305.
T2 chain: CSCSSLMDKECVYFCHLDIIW

The target of series [4] is T3, synthetic human big ET-1 (1-38), P05305.
T3 chain: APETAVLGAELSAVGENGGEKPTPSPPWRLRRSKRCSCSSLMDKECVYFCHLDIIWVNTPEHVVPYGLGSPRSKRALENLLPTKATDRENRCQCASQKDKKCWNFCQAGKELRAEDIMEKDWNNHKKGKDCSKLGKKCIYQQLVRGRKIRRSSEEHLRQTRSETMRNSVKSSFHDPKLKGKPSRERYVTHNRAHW

Series [5] concerns the target atrial natriuretic peptide.
The next series concerns the target T4, substance P, P20366.
T4 chain: RPKPQQFFGLM

bradykinin, P01042, sequence (P01042 whole entry, looked up): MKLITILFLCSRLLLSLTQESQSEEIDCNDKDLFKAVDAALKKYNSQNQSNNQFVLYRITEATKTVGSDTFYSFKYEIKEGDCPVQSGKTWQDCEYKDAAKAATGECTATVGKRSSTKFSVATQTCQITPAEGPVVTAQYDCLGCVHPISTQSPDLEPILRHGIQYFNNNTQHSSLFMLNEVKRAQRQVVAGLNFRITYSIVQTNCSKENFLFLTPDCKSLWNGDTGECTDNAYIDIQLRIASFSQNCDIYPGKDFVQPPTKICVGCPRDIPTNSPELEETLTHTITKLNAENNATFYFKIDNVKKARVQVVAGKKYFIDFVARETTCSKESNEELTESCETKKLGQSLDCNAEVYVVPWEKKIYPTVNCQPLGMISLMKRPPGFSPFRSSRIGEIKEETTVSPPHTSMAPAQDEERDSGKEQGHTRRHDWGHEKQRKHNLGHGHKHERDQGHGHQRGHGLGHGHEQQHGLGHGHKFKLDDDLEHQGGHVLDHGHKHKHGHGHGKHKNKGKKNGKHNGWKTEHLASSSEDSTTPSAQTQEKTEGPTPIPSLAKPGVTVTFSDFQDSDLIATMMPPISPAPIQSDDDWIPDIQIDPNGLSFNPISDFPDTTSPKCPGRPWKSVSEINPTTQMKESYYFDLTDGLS
angiotensin I, P01019, sequence (P01019 whole entry, looked up): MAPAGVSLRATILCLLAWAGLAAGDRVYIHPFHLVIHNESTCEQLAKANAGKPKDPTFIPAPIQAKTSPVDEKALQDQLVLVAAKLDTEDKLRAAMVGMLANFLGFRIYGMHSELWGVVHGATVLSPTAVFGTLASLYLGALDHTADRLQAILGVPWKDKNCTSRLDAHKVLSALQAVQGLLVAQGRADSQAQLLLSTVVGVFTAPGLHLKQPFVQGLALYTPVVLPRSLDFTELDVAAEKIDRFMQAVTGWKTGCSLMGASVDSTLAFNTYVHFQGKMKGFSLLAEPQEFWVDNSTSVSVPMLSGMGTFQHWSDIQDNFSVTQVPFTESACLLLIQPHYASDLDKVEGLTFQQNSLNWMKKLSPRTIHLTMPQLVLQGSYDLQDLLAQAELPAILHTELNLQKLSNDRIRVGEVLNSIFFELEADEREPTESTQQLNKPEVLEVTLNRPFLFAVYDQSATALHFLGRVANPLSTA

For the molecule `c1cnc2c(c1)ccc1cccnc12` [1,10-Phenanthroline, 1,10-phenanthroline], at soluble form of SEP [1], the SEP activity came to 1% and the “inhibition of SEP activity (in words)” value is “inhibited”.

As to `CC[C@H](C)[C@@H]1NC(=O)[C@H](CCCNC(=N)N)NC(=O)[C@H](CC(=O)O)NC(=O)[C@H](CCSC)NC(=O)[C@H](CCCNC(=N)N)NC(=O)CNC(=O)CNC(=O)[C@H](Cc2ccccc2)NC(=O)[C@@H](NC(=O)[C@H](CO)NC(=O)[C@H](CO)NC(=O)[C@H](CCCNC(=N)N)NC(=O)[C@H](CCCNC(=N)N)NC(=O)[C@H](CC(C)C)NC(=O)[C@@H](N)CO)CSSC[C@@H](C(=O)N[C@@H](CC(N)=O)C(=O)N[C@@H](CO)C(=O)N[C@@H](Cc2ccccc2)C(=O)N[C@@H](CCCNC(=N)N)C(=O)N[C@@H](Cc2ccc(O)cc2)C(=O)O)NC(=O)CNC(=O)[C@H](CC(C)C)NC(=O)CNC(=O)[C@H](CO)NC(=O)[C@H](CCC(N)=O)NC(=O)[C@H](C)NC(=O)CNC1=O` [Atrial Natriuretic peptide], the “Hydrolysis (%)” value on soluble form of SEP [2] was more than 95%.

Consider `C[C@H](CS)C(=O)N1CCC[C@H]1C(=O)O` [Captopril, captopril], for which, on soluble form of SEP [1], the SEP activity came out at 103% and the “inhibition of SEP activity (in words)” value was “not inhibited”.

Turning to `COc1c2c(c(O)c3c1C(O)Cc1cc(CC(C)O)c(C(=O)O)c(O)c1-3)C(=O)c1cccc(O)c1C2=O` (stereo not shown) [FR901533], at soluble form of SEP [1], the SEP activity is 38% and the “inhibition of SEP activity (in words)” value is given as “not completely; also recorded: only partially inhibited”.

With `CC(C)C[C@H](NP(=O)(O)O[C@@H]1O[C@@H](C)[C@H](O)[C@@H](O)[C@H]1O)C(=O)N[C@@H](Cc1c[nH]c2ccccc12)C(=O)O` [Phosphoramidon], the “sensitivity of ECE-1 to phosphoramidon lower than that of ECE-2” value with ECE-1 and ECE-2 is on record as 250 fold. For the same molecule, at soluble form of SEP [1], the SEP activity came to 8%, the IC50 is approximately 6 nM and the “inhibition of SEP activity (in words)” value is reported as “inhibited”.

In the case of `O=C(O)CNC(=O)C(CS)Cc1ccccc1` (stereo not shown) [Thiorphan], at soluble form of SEP [1], the SEP activity came out at 2%, the IC50 was approximately 2000 nM and the “inhibition of SEP activity (in words)” value was “efficiently inhibited”.

With “Angiotensin I: bioactive peptide substrate from American Peptides (DRVYIHPFHL)”, the “Hydrolysis (%)” value in the series with soluble form of SEP [2] is more than 95%.

Turning to “Big endothelin-1: synthetic human big ET-1, inactive ET precursor (CSCSSLMDKECVYFCHLDIIWVNTPEHVVPYGLGSPRS; ends and bridges not checked; cysteine pairing not given here; UniProt P05305 53-90, looked up)”, in the series with soluble form of SEP [2], the “Hydrolysis (%)” value is on record as 42%.

On to “Endothelin-1: human ET-1, mature endothelin peptide”, for which, in the series with soluble form of SEP [2], the “Hydrolysis (%)” value amounted to 92%.

Take RPPGFSPFR [Bradykinin]: the “Hydrolysis (%)” value at soluble form of SEP [2] was more than 95%.

For the molecule “Substance P: bioactive peptide substrate from American Peptides”, the “Hydrolysis (%)” value with soluble form of SEP [2] is recorded as more than 95%.

B1: soluble form of SEP (soluble secreted endopeptidase), partially purified from the conditioned medium of CHO/SEP cells (protein)
chain: RALRDSSLKSDICTTPSCVIAAARILENMDQSRNPCENFYQYACGGWLRHHVIPETNSRYSVFDILRDELEVILKGVLEDSTSQHRPAVEKAKTLYRSCMNQSVIEKRDSEPLLSVLKMVGGWPVALDKWNETMGLKWELERQLAVLNSQFNRRVLIDLFIWNDDQNSSRHVIYIDQPTLGMPSREYYFQEDNNHKVRKAYPEFMTSVATMLRKDQNLSKESAMVREEMAEVLELETHLANATVPQEKRHDVTALYHRMDLMELQERFGLKGFNWTLFIQNVLSSVEVELFPDEEVVVYGIPYLENLEDIIDSYSARTMQNYLVWRLVLDRIGSLSQRFKEARVDYRKALYGTTVEEVRWRECVSYVNSNMESAVGSLYIKRAFSKDSKSTVRELIEKIRSVFVDNLDELNWMDEESKKKAQEKAMNIREQIGYPDYILEDNNKHLDEEYSSLTFYEDLYFENGLQNLKNNAQRSLKKLREKVDQNLWIIGAAVVNAFYSPNRNQIVFPAGILQPPFFSKDQPQSLNFGGIGMVIGHEITHGFDDNGRNFDKNGNMLDWWSNFSARHFQQQSQCMIYQYGNFSWELADNQNVNGFSSLGENIADNGGVRQAYKAYLRWLADGGKDQRLPGLNLTYAQLFFINYAQVWCGSYRPEFAVQSIKTDVHSPLKYRVLGSLQNLPGFSEAFHCPRGSPMHPMKRCRIW
As for B1, the Hydrolysis (%) is more than 95% with bradykinin, P01042; 92% in series [3]; 42% in series [4]; more than 95% with angiotensin I, P01019; more than 95% in [5]; more than 95% in the series with substance P, P20366.
